Experimental data reported in patent US9675591B2, “Methods for treating seizure disorders and pain” (THE REGENTS OF THE UNIVERSITY OF CALIFORNIA, priority 2013, dated 2017).

Experiments:
KCa2.2 (SK2) = KCa2.2 (SK2) (Rattus norvegicus, UniProt P70604); assay: Whole-cell patch-clamp, KCa2.2; type: cell-based, human; details: 250 nM free intracellular Ca2+
Method: HEK-293 or COS-7 cells stably expressing hKCa2.1, rKCa2.2, and hKCa2.3 have been described previously (Sankaranarayanan et al., 2009). Cells were held at −80 mV and KCa currents elicited by dialysis with a K^+ aspartate based internal containing 250 nM free Ca^2+ (pH 7.2, 290 mOsm, pipette resistance 1.5 MΩ). To reduce currents from native chloride channels, Na^+ aspartate Ringer was used as an external solution. KCa2 currents were recorded with 200-ms voltage ramps from −120 to +40 mV applied every 10 s, and the fold increase of slope conductance at −80 mV by drug was taken as a measure of channel activation. Data analysis, fitting, and plotting were performed with IGOR-Pro (Wavemetrics, Lake Oswego, Oreg., USA) and Origin 9.0 (OriginLab, Northampton, Mass., USA).

Nav1.7 = Nav1.7 (Homo sapiens (Human), UniProt Q15858); assay: Voltage-clamp, Nav1.7 in HEK-293 cells; type: cell-based
Sequence of Nav1.7 (Q15858 whole entry): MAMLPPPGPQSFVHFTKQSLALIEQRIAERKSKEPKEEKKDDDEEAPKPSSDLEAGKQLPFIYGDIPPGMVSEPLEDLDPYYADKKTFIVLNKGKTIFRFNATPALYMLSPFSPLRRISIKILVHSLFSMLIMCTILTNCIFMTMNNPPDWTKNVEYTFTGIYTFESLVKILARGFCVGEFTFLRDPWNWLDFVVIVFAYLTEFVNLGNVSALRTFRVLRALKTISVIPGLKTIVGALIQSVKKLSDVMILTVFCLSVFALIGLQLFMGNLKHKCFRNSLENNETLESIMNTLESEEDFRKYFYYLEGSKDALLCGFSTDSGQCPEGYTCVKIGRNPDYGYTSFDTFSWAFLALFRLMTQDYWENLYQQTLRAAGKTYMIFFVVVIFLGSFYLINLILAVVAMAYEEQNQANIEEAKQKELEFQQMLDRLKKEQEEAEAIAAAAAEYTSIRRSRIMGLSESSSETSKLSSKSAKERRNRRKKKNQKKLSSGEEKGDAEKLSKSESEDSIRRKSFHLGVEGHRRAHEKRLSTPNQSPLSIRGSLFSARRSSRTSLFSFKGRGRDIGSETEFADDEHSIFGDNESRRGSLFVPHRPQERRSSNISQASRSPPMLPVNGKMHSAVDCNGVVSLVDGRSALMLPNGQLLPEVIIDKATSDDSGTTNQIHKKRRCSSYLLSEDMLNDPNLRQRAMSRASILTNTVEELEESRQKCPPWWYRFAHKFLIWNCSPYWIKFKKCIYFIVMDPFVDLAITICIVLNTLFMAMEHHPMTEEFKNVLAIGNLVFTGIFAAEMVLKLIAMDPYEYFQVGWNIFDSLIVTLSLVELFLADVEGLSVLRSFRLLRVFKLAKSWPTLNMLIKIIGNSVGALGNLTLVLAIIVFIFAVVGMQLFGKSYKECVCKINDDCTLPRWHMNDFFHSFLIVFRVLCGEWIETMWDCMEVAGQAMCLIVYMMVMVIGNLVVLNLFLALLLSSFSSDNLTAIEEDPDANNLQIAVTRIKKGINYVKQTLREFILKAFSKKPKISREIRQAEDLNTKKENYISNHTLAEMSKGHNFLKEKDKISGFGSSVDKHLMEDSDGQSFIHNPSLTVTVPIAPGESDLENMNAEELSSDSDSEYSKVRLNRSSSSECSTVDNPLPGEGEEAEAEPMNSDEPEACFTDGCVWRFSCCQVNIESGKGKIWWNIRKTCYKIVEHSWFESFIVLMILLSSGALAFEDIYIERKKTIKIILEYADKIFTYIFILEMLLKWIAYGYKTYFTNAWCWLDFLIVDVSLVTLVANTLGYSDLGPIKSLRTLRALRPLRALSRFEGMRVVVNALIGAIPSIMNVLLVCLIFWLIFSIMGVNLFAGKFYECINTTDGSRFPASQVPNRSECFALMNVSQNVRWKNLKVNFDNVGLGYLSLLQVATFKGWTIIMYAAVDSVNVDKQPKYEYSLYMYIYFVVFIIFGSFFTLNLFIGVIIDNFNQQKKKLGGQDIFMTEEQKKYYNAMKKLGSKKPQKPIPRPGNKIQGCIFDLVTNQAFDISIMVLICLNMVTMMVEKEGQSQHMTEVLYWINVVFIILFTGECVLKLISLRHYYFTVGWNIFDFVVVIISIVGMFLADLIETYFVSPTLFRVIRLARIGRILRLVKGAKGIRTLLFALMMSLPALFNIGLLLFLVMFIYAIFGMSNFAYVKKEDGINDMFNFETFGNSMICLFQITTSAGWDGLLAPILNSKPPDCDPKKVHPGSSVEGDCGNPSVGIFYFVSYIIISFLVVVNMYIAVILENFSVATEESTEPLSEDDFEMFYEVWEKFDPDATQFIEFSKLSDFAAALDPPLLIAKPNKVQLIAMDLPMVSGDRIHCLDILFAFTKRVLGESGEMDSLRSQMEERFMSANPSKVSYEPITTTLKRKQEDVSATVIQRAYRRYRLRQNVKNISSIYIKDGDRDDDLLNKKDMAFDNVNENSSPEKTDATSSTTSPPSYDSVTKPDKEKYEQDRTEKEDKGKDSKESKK
Method: All experiments were conducted at room temperature (22-24° C.) with an EPC-10 amplifier and Pulse software (HEKA, Lambrecht/Pfalz, Germany) in the whole-cell mode of the patch-clamp technique. Human embryonic kidney (HEK)-293 cell lines stably expressing hNav1.1, hNav1.5, hNav1.7 channels (generously provided by Dr. Christopher Lossin, University of California Davis), hNav1.4 (Frank Lehmann-Horn, University of Ulm), or hKv2.1 channels (James Trimmer, University of California Davis) were bathed in extracellular solution containing (in mM): 160 NaCl; 4.5 KCl; 1 MgCl2; 2 CaCl2; 10 HEPES [pH was adjusted to 7.4 using NaOH (310 mOsm)]. Pipettes were filled with intracellular solution containing (in mM): 145 KF; 2 MgCl2; 10 ethylene glycol tetraacetic acid; 10 HEPES (pH adjusted to 7.2 with KOH; 300 mOsm). Neuroblastoma N1E-115 cells (ATCC, Manassa, Va., USA) expressing Nav1.2 were patched with a CsF internal solution consisting of (in mM): 10 NaF; 110 CsF; 20 CsCl; 2 ethylene glycol tetraacetic acid; 10 HEPES (CsOH to pH 7.35; 300 mOsm). All pipette tip resistances were 2-4 MΩ. Series resistances of 3-10 MΩ were compensated 40-80%. All cells were voltage-clamped to a holding potential of −90 mV unless otherwise specified. The sampling frequency was 5 kHz. Na^+ currents were elicited by 30-ms pulse to 0 mV from −90 mV applied every 10 s. […]

mechanical allodynia = assay: Pain assay, partial ligation of the sciatic nerve (Von Frey); type: in vivo, rats; details: 5 mg/kg, 2 hour time point
Method: Rats were anesthetized with sodium pentobarbital, the upper thigh shaved and wiped off with ethanol and betadine. A small incision was made in the skin and the underlying muscle separated to expose the sciatic nerve. Approximately ⅓ to ½ of the nerve was tied off by passing a needle (7.0) and nylon suture through the nerve. The muscle and skin incision were afterwards closed off and the animals kept warm until they had recovered from the anesthesia. This procedure was performed on the right side (ipsilateral) while a sham surgery exposing but not ligating the nerve was performed on the left hind leg (contralateral). After 7 days of recovery animals were tested for the development of mechanical allodynia (abnormal response to a non-noxious stimulus) by putting them in a bottomless plexiglass box placed on a wire mesh (¼″) platform. After 30-60 min of acclimatization a baseline mechanical sensitivity was determined by applying a series of calibrated Von Frey fibers perpendicularly to the plantar surface of each hind paw and holding it there for about 6 s with enough force to slightly bend the fiber. […] This was repeated until a 50% threshold for withdrawal could be determined. The allodynic threshold was then redetermined after i.p. application of SKA-19 at 5 mg/kg at the time-to-peak effect determined in the acute seizure models.

[1] = ASP toxicity studies (species not stated); type: in vivo; details: 200 mg/kg
hippocampal kindled rats = assay: Hippocampal kindled seizures; type: in vivo
Method: Bipolar electrodes were surgically implanted into the hippocampus of anesthetized rats, which were allowed to recover for one week. One week after the surgery, the rats were stimulated with suprathreshold trains of 200 μAmps for 10 sec, 50 Hz, every 30 min for 6 hours (12 stimulations per day) on alternate days (4 to 5 stimulus days) until they were fully kindled. One week later the effect of a single i.p. dose of test compound was assessed on behavioral seizure score (BSS) and afterdischarge duration (ADD). An initial group of kindled rats (n=6-8) were tested at 15, 45, 75, 105, 135, 165, and 195 min after drug administration. Results obtained at the various time points were compared with the last control stimulus delivered 15 minutes prior to drug administration. Thus, each animal serves as its own control. The BSS's were scored according to the following criteria: Stage 1—mouth and facial clonus; Stage 2—stage 1 plus head nodding; Stage 3—stage 2 plus forelimb clonus; Stage 4—stage 3 plus rearing; Stage 5—stage 4 plus repeated rearing and falling. The afterdischarge threshold (ADT) is measured in the kindled rat. […] The BSS and ADD for each dose were averaged at the TPE, the S.E.M. calculated, and the significance of the difference compared to control values determined. (Significant differences in BSS from control and treated groups are determined by the non-parametric Mann-Whitney U test).

In the case of `Nc1nc2ccc(SC(F)(F)F)cc2s1` [SKA-19, 6-((trifluoromethyl)thio)benzo[d]thiazol-2-amine], the EC50 (KCa2.2 (SK2); read-out: EC50 or IC50, KCa2.2) is reported as 14 µM, the “maximal increase of KCa2 currents” value (KCa2.2 (SK2); stated for KCa2 currents) is reported as 30 fold and the “block of Nav1.7” value (Nav1.7) is reported as “low micromolar range”. For the same compound, the “withdrawal threshold (Von Frey)” value (mechanical allodynia) was “significantly increased”, the “duration of sedation and neurological impairment” value [1] was “up to 24 h” and the “afterdischarge duration (ADD)” value (hippocampal kindled rats; 30 mg/kg i.p., two fully kindled rats) was “completely suppressed”. The “seizure score after treatment” value (hippocampal kindled rats; 30 mg/kg i.p., two fully kindled rats, predrug score 4-5) was 0, the ED50 (hippocampal kindled rats; Rattus norvegicus, ip, 2 h) was 5.47 mg/kg and the “toxicity in kindled rats” value (hippocampal kindled rats; highest dose 15 mg/kg) was “no evidence of toxicity”.
